Experimental data: patent publication US20040039001A1, “2-guanidino-4-aryl-quinazoline” (priority 2000, published 2004)
Counter-ions that a name gives are not always drawn.

Compared with `Cl.N=C(N)Nc1nc(-c2ccccc2)c2c(O)cccc2n1`, `C[S+]([O-])c1ccc2nc(NC(=N)N)nc(-c3ccccc3)c2c1` (stereo not shown) [Example 5, N-(6-methanesulfinyl-4-phenylquinazolin-2-yl)guanidine] is lower in melting point: 310 °C for the first, 175 to 180 °C for the second.

First: CN=C(NC)Nc1nc(-c2ccccc2)c2cc(Cl)ccc2n1.Cl
Second: CS(=O)(=O)c1ccc2nc(NC(=N)N)nc(-c3ccccc3)c2c1 (as salt: HCl) [Example 6, N-(6-methanesulfonyl-4-phenylquinazolin-2-yl)guanidine]
The melting point of the first is higher: 264 to 267 °C for the first, 180 to 185 °C for the second.
